Experimental data taken from article PMC10817493, “p-Terphenyl and Diphenyl Ether Derivatives from the Marine-Derived Fungus Aspergillus candidus HM5-4” (Marine Drugs, 2023).

Experiments:
[1] = tested on: Neoscytalidium dimidiatum; experiment: Antifungal activity, filter paper disc agar diffusion method; type: cell-based; settings: includes 6 mm disc, 10.0 µg/disc (carbendazim 10 μL, 1.0 mg/mL), mean ± SD, triplicate
Protocol: The antifungal activities of three known compounds (5–7) were determined by the filter paper disc agar diffusion method.
The inhibitory activities of some compounds against six phytopathogenic fungi (Fusarium oxysporum f. sp. cubense, Colletotrichum gloeosporioides, Thielaviopsis paradoxa, Bipolaris cactivora (Petrak) Alcorn, Neoscytalidium dimidiatum, and Colletotrichum scovillei) were evaluated using the filter paper disc agar diffusion method; 250 μL of the fungal solution was aspirated onto the corresponding solid medium and spread evenly with a cotton swab. Samples were dissolved in MeOH to prepare solutions of 1.0 mg/mL and 3.0 mg/mL concentrations. Carbendazim (10 μL, 1.0 mg/mL) was used as a positive control and MeOH (10 μL) was used as negative control. The diameter of the inhibition zones of the plates cultured at 37 °C for 24 h were measured including the 6 mm disc diameter. Experiments were performed in triplicate.

[2] = tested on: human liver cancer cells (BEL-7402); experiment: Cytotoxic assay (modified MTT), BEL-7402; type: cell-based; settings: mean ± SD of three parallel experiments
Protocol: (§1) All the compounds mentioned above were tested for their cytotoxic activities against human myeloid leukemia cells (K562), human liver cancer cells (BEL-7402), human gastric cancer cells (SGC-7901), human non-small cell lung cancer cells (A549) and human HeLa cervical cancer cells. […] Compared to the cytotoxic activity of 7, the cytotoxic activity of 5 was much stronger.
(§2) All above-mentioned compounds were evaluated for their cytotoxicity in five human tumor cell lines: K562, BEL-7402, SGC-7901, A549 and HeLa cells which were bought from the Cell Bank of Type Culture Collection of the Shanghai Institute of Cell Biology, Chinese Academy of Sciences, using modified MTT methods. The details of this are described in our previous paper. The positive control was cisplatin.

[3] = tested on: human myeloid leukemia cells (K562); experiment: Cytotoxic assay (modified MTT), K562; type: cell-based; settings: mean ± SD of three parallel experiments
Protocol: as §1, §2

[4] = tested on: human HeLa cervical cancer cells; experiment: Cytotoxic assay (modified MTT), HeLa; type: cell-based; settings: mean ± SD of three parallel experiments
Protocol: as §1, §2

[5] = tested on: human non-small cell lung cancer cells (A549); experiment: Cytotoxic assay (modified MTT), A549; type: cell-based; settings: mean ± SD of three parallel experiments
Protocol: as §1, §2

[6] = tested on: human gastric cancer cells (SGC-7901); experiment: Cytotoxic assay (modified MTT), SGC-7901; type: cell-based; settings: mean ± SD of three parallel experiments
Protocol: as §1, §2

α-glucosidase = α-glucosidase (Saccharomyces cerevisiae, UniProt P53341); experiment: α-Glucosidase inhibition assay (PNPG substrate); type: biochemical
Protocol: All abovementioned compounds were measured for their inhibitory effects against α-glucosidase, using PNPG as the substrate. The enzyme inhibitory assay was carried out by a formerly described method, with some modifications. Compounds were dissolved in DMSO and six concentration gradients were set in turn. All the assays were performed in 0.1 M sodium phosphate buffer (PH = 6.8). The 10 μL sample was mixed with 100 μL α-glucosidase solution (0.2 U/mL, Sigma, Kanagawa, Japan) and shaken well, then added to a 96-well plate and incubated at 37 °C for 15 min. Subsequently, 40 μL of 2.5 mM 4-nitrophenyl-α-D-glucopyranoside was added and further incubated at 37 °C for 15 min. DMSO was used as a control and the blank wells contained buffer in place of substrate. The OD values were tested at 405 nm with a microplate reader. […] The percentage inhibition was calculated by the following equation:% inhibition = ((ODcontrol − ODsample)/(ODcontrol − ODblank)) × 100

[7] = tested on: K562, BEL-7402, SGC-7901, A549 and HeLa cells; experiment: Cytotoxic activity, summary over five human tumor cell lines; type: cell-based; settings: range over compounds 5 and 7 and K562, BEL-7402, SGC-7901, A549, HeLa, read-out: IC50 values, range over the five cancer cell lines
From the text: Two undescribed p-terphenyl derivatives, asperterphenylcins A–B (1–2), and two undescribed diphenyl ether derivatives, asperdiphenylcins A–B (3–4), together with three previously described p-terphenyl derivatives—4″-deoxyterprenin (5), terphenyllin (6), and 3″-hydroxyterphenyllin (7)—were obtained from the solid-rice culture of the marine-derived fungus Aspergillus candidus HM5-4, which was isolated from sponges from the South China Sea. Their structures were elucidated by HRESIMS data and NMR spectroscopic analysis.
as §2

[8] = Homo sapiens, Bel-7402, BEL-7402 cells
[9] = Homo sapiens, SGC-7901, SGC-7901 cells

Sequence of α-glucosidase (P53341 whole entry): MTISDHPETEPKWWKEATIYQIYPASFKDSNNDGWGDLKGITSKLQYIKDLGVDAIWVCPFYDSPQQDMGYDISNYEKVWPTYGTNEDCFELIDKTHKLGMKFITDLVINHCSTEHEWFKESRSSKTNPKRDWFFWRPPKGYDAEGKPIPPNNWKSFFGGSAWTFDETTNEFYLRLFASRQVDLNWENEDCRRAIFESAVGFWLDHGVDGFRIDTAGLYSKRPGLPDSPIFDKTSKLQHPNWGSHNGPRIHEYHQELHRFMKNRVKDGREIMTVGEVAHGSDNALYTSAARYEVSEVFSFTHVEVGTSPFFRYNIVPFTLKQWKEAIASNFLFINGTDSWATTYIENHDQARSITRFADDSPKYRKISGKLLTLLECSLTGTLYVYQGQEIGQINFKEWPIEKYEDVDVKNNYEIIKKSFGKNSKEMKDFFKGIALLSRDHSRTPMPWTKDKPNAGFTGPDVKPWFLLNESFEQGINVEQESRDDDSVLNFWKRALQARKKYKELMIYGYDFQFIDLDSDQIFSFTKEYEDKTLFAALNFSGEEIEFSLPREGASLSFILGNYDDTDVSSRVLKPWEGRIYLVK

| SMILES | diameter of inhibition zone against N. dimidiatum [1] [mm] | IC50 ([2]; BEL-7402 cells) [µM] | IC50 [3] [µM] | IC50 [4] [µM] | IC50 ([5]; A549 cells) [µM] | IC50 ([6]; SGC-7901 cells) [µM] | IC50 [2, 8] | IC50 ([3]; Homo sapiens) | IC50 ([4]; Homo sapiens) | IC50 ([5]; Homo sapiens, A549, A549 cells) | IC50 [6, 9] | α-glucosidase inhibitory activity (in words) (α-glucosidase) | IC50 [7] [µM] |
| --- | --- | --- | --- | --- | --- | --- | --- | --- | --- | --- | --- | --- | --- |
| COC(=O)Nc1nc2ccccc2[nH]1 [Carbendazim, reference compound] | 55.00 ± 0.82 |  |  |  |  |  |  |  |  |  |  |  |  |
| N.N.[Cl][Pt][Cl] [Cisplatin, cisplatin, reference compound] |  | 4.02 ± 0.06 | 3.08 ± 0.05 | 11.3 ± 0.15 | 1.93 ± 0.02 | 4.11 ± 0.02 |  |  |  |  |  |  |  |
| COc1ccc(O)c(-c2c(OC)cc(-c3ccc(O)cc3)c(OC)c2O)c1 [Compound 1, Asperterphenylcin A] |  |  |  |  |  |  | > 20 µg/mL | > 20 µg/mL | > 20 µg/mL | > 20 µg/mL | > 20 µg/mL |  |  |
| COc1c(-c2ccc(O)cc2)cc(O)c(-c2ccc(O)cc2)c1OC [Compound 2, Asperterphenylcin B] |  |  |  |  |  |  | > 20 µg/mL | > 20 µg/mL | > 20 µg/mL | > 20 µg/mL | > 20 µg/mL |  |  |
| COc1cccc2c1C(=O)OCc1cc(COC(C)=O)cc(O)c1O2 [Compound 3, Asperdiphenylcin A] |  |  |  |  |  |  | > 20 µg/mL | > 20 µg/mL | > 20 µg/mL | > 20 µg/mL | > 20 µg/mL | no α-glucosidase inhibitory activity |  |
| COc1cccc2c1C(=O)OCc1cc(C(=O)O)cc(O)c1O2 [Compound 4, Asperdiphenylcin B] |  |  |  |  |  |  | > 20 µg/mL | > 20 µg/mL | > 20 µg/mL | > 20 µg/mL | > 20 µg/mL | no α-glucosidase inhibitory activity |  |
| COc1cc(-c2ccccc2)c(OC)c(O)c1-c1ccc(OCC=C(C)C)c(O)c1 [Compound 5, 4″-deoxyterprenin] | 31.67 ± 2.36 |  |  |  |  |  | 6.69 ± 0.12 µM | 15.03 ± 0.14 µM | 44.77 ± 0.13 µM | 3.32 ± 0.1 µM | 3.67 ± 0.17 µM | completely disappeared | 3.32 to 60.4 |
| COc1cc(-c2ccc(O)cc2)c(OC)c(O)c1-c1ccc(O)cc1 [Compound 6, terphenyllin] |  |  |  |  |  |  | > 20 µg/mL | > 20 µg/mL | > 20 µg/mL | > 20 µg/mL | > 20 µg/mL |  |  |
| COc1cc(-c2ccc(O)c(O)c2)c(OC)c(O)c1-c1ccc(O)cc1 [Compound 7, 3″-hydroxyterphenyllin] |  |  |  |  |  |  |  | 34 ± 0.4 µM | 53.6 ± 0.73 µM |  |  |  | 3.32 to 60.4 |
